Values of other authors, collected in patent publication US20180110792A1, “COMPOSITIONS AND METHODS FOR INHIBITING GLYCATION REACTIONS” (Access Business Group International LLC, priority 2016, published 2018).

Conditions: human, in vivo

Compound: N=C(N)NN [aminoguanadine]
- adverse effects in clinical trials: demonstrated adverse effects in clinical trials
